According to ChEMBL document CHEMBL1136552, “Synthesis and preliminary cytotoxicity of nitrogen mustard derivatives of distamycin A” (Bioorg Med Chem Lett, 2003):

Tested on: K562
Assay: Cytotoxicity against K562 leukemia cells in vitro, expressed as the minimal concentration necessary to inhibit incorporation of [3H]thymidine by 50%
Type: functional, cell-based
Conditions: Homo sapiens, K562, 48 h

SMILES	IC50
CCCC(=O)Nc1cc(/C=C/C(=O)Nc2cc(C(=O)Nc3ccc(N(CCCl)CCCl)cc3)n(C)c2)n(C)c1	210 nM
CCCONc1cc(C(=O)Nc2cc(C(=O)Nc3ccc(N(CCCl)CCCl)cc3)n(C)c2)n(C)c1	250 nM
O=C(O)CCCc1ccc(N(CCCl)CCCl)cc1 [CHLORAMBUCIL]	35000 nM
CCCONc1cc(C(=O)Nc2ccc(N(CCCl)CCCl)cc2)n(C)c1	950 nM
CCCC(=O)Nc1cc(/C=C/C(=O)Nc2ccc(N(CCCl)CCCl)cc2)n(C)c1	1200 nM
CCCONc1cc(C(=O)Nc2cc(C(=O)Nc3cc(C(=O)Nc4ccc(N(CCCl)CCCl)cc4)n(C)c3)n(C)c2)n(C)c1	30 nM
